Values quoted from earlier work as cited in patent US9827315B2, “Compositions of pharmaceutical actives containing diethylene glycol monoethyl ether or other alkyl derivatives” (THEMIS MEDICARE LIMITED, priority 2013, dated 2017).
In brackets after ≈: the same amount, converted by molar mass. Structures can show the parent of a compound that is named as a salt.

conditions: at 22° C.; cited from earlier work

Compound	solubility (solvent not given) [g/100 mL]
NC(Cc1ccc(N(CCCl)CCCl)cc1)C(=O)O (stereo not drawn) [Melphalan]	< 0.1

same assay, conditions: at 25° C.; cited from earlier work

Compound	solubility in water	viscosity of vehicle [Cps]
CC(=O)S[C@@H]1CC2=CC(=O)CC[C@]2(C)[C@H]2CC[C@@]3(C)[C@@H](CC[C@@]34CCC(=O)O4)[C@H]12 [Spironolactone, 17-hydroxy-7α-mercapto-3-oxo-17α-pregn-4-ene-21-carboxylic acid, γ-lactone acetate]	about 22 mg/L	
CCCCCCCC/C=C\CCCCCCCC(=O)OCC [Ethyl oleate]		3.9

same assay, conditions: at pH 7.0; cited from earlier work

Compound	octanol/water partition coefficient
COC(=O)[C@@H]1CC2=CC(=O)CC[C@]2(C)[C@@]23O[C@@H]2C[C@@]2(C)[C@@H](CC[C@@]24CCC(=O)O4)[C@H]13 [Eplerenone, pregn-4-ene-7,21-dicarboxylic acid, 9,11-epoxy-17-hydroxy-3-oxo, γ-lactone, methyl ester (7α, 11α, 17α)]	approximately 7.1

same assay, conditions: cited from earlier work

Compound	solubility in DMSO	solubility in water
Cl.N[C@@H]1CCCCN(c2c(F)cc3c(=O)c(C(=O)O)cn(C4CC4)c3c2Cl)C1 [Besifloxacin]	Sparingly soluble in methanol, Sparingly soluble in water (1 mg/mL), DMSO (<1 mg/mL)	Sparingly soluble in methanol, Sparingly soluble in water (1 mg/mL), DMSO (<1 mg/mL)

same assay, conditions: dissolved in 30 ml water; cited from earlier work

Compound	water solubility [g]
CC[C@H]1OC(=O)[C@H](C)[C@@H](O[C@H]2C[C@@](C)(OC)[C@@H](O)[C@H](C)O2)[C@H](C)[C@@H](O[C@@H]2O[C@H](C)C[C@H](N(C)C)[C@H]2O)[C@](C)(O)C[C@@H](C)/C(=N\OCOCCOC)[C@H](C)[C@@H](O)[C@]1(C)O [Roxithromycin, (3R,4S,5S,6R,7R,9R,11S,12R,13S,14R)-6-[(2S,3R,4S,6R)-4-d-3-hydroxy-6-methyloxan-2-yl]oxy-14-ethyl-7,12,13-trihydroxy-4-[(2R,4R,5S,6S)-5-hydroxy-4-methoxy-4,6-dimethyloxan-2-yl]oxy-10-(2-methoxyethoxymethoxyimino)-3,5,7,9,11,13-hexamethyl-1-oxacyclotetradecan-2-one]	0.1

same assay, conditions: water; cited from earlier work

Compound	Solubility in water (descriptive)
C#C[C@]1(O)CC[C@H]2[C@@H]3CCc4cc(O)ccc4[C@H]3CC[C@@]21C [Ethinyl estradiol, 19-nor-17α-pregna-1,3,5(10)-trien-20-yne-3,17-diol]	practically insoluble
COCCOC(=O)C1=C(C)NC(C)=C(C(=O)OC(C)C)C1c1cccc([N+](=O)[O-])c1 (stereo not drawn) [Nimodipine]	Soluble in methanol. Insoluble in water in beta cyclodextrin
C[C@H](CS)C(=O)N1CCC[C@H]1C(=O)O [Captopril, (2S)-1-[(2S)-2-methyl-3-sulfanylpropanoyl]pyrrolidine-2-carboxylic acid]	easily soluble
CC(=O)O[C@]1(C(C)=O)CC[C@H]2C3C[C@H](C)C4=CC(=O)C=CC4(C)[C@@]3(F)[C@@H](O)CC21C (stereo partly drawn) [Flurometholone Acetate]	Freely soluble in chloroform and acetone, soluble in ethanol, very slightly soluble in water
C#C[C@]1(OC(=O)CCCCCC)CC[C@H]2[C@@H]3CCC4=CC(=O)CC[C@@H]4[C@H]3CC[C@@]21C [Norethisterone enantate, 17alpha-Ethynyl-19-nortestosterone 17-heptanoate]	practically insoluble
CCN(CC)CCOC(=O)C1(C2CCCCC2)CCCCC1 [Dicyclomine Hydrocloride, Dicyclomine]	soluble
CCCC(=O)OCOC(=O)C1=C(C)NC(C)=C(C(=O)OC)[C@H]1c1cccc(Cl)c1Cl [Clevidipine, O3-(butanoyloxymethyl) O5-methyl (4R)-4-(2,3-dichlorophenyl)-2,6-dimethyl-1,4-dihydropyridine-3,5dicarboxylate]	practically insoluble
CCCCCCCCCC(=O)O[C@H]1CC[C@H]2[C@@H]3CCC4=CC(=O)CC[C@@H]4[C@H]3CC[C@]12C [Nandrolone Decoanate, Estr-4-en-3-one,17-[(1-oxodecyl)oxy]-,(17b)-]	practically insoluble
COC(=O)[C@@H]1CC2=CC(=O)CC[C@]2(C)[C@@]23O[C@@H]2C[C@@]2(C)[C@@H](CC[C@@]24CCC(=O)O4)[C@H]13 [Eplerenone, pregn-4-ene-7,21-dicarboxylic acid, 9,11-epoxy-17-hydroxy-3-oxo, γ-lactone, methyl ester (7α, 11α, 17α)]	very slightly soluble
CCC(C)n1ncn(-c2ccc(N3CCN(c4ccc(OC[C@H]5CO[C@](Cn6cncn6)(c6ccc(Cl)cc6Cl)O5)cc4)CC3)cc2)c1=O (mixture of isomers) [Itraconazole]	Soluble in organic solvents such as DMSO and dimethyl formamide. Insoluble in water.
COC(=O)C1=C(C)NC(C)=C(C(=O)O[C@@H]2CCCN(Cc3ccccc3)C2)C1c1cccc([N+](=O)[O-])c1 (stereo partly drawn) [Benidipine Hydrochloride, O5-methyl O3-[(3R)-1-(phenylmethyl)piperidin-3-yl]2,6-dimethyl-4-(3-nitrophenyl)-1,4-dihydropyridine-3,5-dicarboxylate]	practically insoluble
CC1(C)O[C@@H]2C[C@H]3[C@@H]4CCC5=CC(=O)C=C[C@]5(C)[C@@]4(F)[C@@H](O)C[C@]3(C)[C@]2(C(=O)CO)O1 [Triamcinolone Acetonide, 9-Fluoro-11β,16α,17,21-tetrahydroxypregna-1,4-diene-3,20-dione cyclic 16,17acetal with acetone]	practically insoluble
CC[C@H]1OC(=O)[C@H](C)[C@@H](O[C@H]2C[C@@](C)(OC)[C@@H](O)[C@H](C)O2)[C@H](C)[C@@H](O[C@@H]2O[C@H](C)C[C@H](N(C)C)[C@H]2O)[C@](C)(O)C[C@@H](C)/C(=N\OCOCCOC)[C@H](C)[C@@H](O)[C@]1(C)O [Roxithromycin, (3R,4S,5S,6R,7R,9R,11S,12R,13S,14R)-6-[(2S,3R,4S,6R)-4-d-3-hydroxy-6-methyloxan-2-yl]oxy-14-ethyl-7,12,13-trihydroxy-4-[(2R,4R,5S,6S)-5-hydroxy-4-methoxy-4,6-dimethyloxan-2-yl]oxy-10-(2-methoxyethoxymethoxyimino)-3,5,7,9,11,13-hexamethyl-1-oxacyclotetradecan-2-one]	almost insoluble
CC1=C(C/C=C(\C)CCC[C@H](C)CCC[C@H](C)CCCC(C)C)C(=O)c2ccccc2C1=O [Phytomenadione, 2-methyl-3-phytyl-1,4-naphthoquinone]	insoluble
CC1=C(/C=C/C(C)=C/C=C/C(C)=C/C(=O)O)C(C)(C)CCC1 [Tretinoin]	Insoluble in water
C=C(c1ccc(C(=O)O)cc1)c1cc2c(cc1C)C(C)(C)CCC2(C)C [Bexarotene]	Insoluble in water and slightly soluble in vegetable oils and ethanol, USP
O=C1[C@H](CC[C@H](O)c2ccc(F)cc2)[C@@H](c2ccc(O)cc2)N1c1ccc(F)cc1 [Ezetimibe]	Freely to very soluble in ethanol, methanol, and acetone and practically insoluble in water.
CC(=O)O[C@]1(C(C)=O)CC[C@H]2[C@@H]3C[C@H](C)C4=CC(=O)CC[C@]4(C)[C@H]3CC[C@@]21C [MPA, 17α-hydroxy-6α-methylpregn-4-ene-3,20-dione acetate]	insoluble
(3R,4S,5S,6R,7R,9R,11S,12R,13S,14S)-6-{[(2S,3R,4S,6R) -4-(dimethylamino)-3-hydroxy-6-methyloxan-2-yl]oxy}-14-ethyl-12,13-dihydroxy-4-{[(2R,4S,5S,6S)-5-hydroxy-4-methoxy-4,6-dimethyloxan-2-yl]oxy}-7-methoxy-3,5,7,9,11,13-hexamethyl-1-oxacyclotetradecane-2,10-dione [Azithromycin]	practically insoluble
CCC(=O)O[C@]1(C(=O)SCF)[C@H](C)C[C@H]2[C@@H]3C[C@H](F)C4=CC(=O)C=C[C@]4(C)[C@@]3(F)[C@@H](O)C[C@@]21C [Fluticasone Propionate]	It is practically insoluble in water, freely soluble in dimethyl sulfoxide and dimethylformamide, and slightly soluble in methanol and 95% ethanol. Solubility in Diethylene glycol monoethyl ether is 14.7 mg/ml.
C[C@]12Cc3c[nH]nc3C[C@@H]1CC[C@@H]1[C@@H]2CC[C@@]2(C)[C@H]1CC[C@]2(C)O [Stanozolol]	practically insoluble
Tacrolimus	Insoluble in water, freely soluble in ethanol, and very soluble in methanol and chloroform.
CC(=O)OCC(=O)[C@@]1(O)CC[C@H]2[C@@H]3CCC4=CC(=O)C=C[C@]4(C)[C@H]3[C@@H](O)C[C@@]21C [Prednisolone acetate, 11β,17,21-Trihydroxypregna-1,4-diene-3,20-dione 21-acetate]	practically insoluble
COC(=O)C1=C(C)NC(C)=C(C(=O)OC2CCN(Cc3ccccc3)C2)[C@H]1c1cccc([N+](=O)[O-])c1.Cl (stereo in doubt) [Barnidipine Hydrochloride, 3-(3R)-1-benzylpyrrolidin-3-yl 5-methyl 2,6-dimethyl-4-(3-nitrophenyl)-1,4-dihydropyridine-3,5-dicarboxylate]	insoluble
CCCC(=O)O[C@]1(C(=O)COC(C)=O)CC[C@H]2[C@@H]3C[C@H](F)C4=CC(=O)C=C[C@]4(C)[C@@]3(F)[C@@H](O)C[C@@]21C [Difluprednate]	Very low solubility in water
CN1C(C(=O)Nc2ccccn2)=C(O)c2sc(Cl)cc2S1(=O)=O [Lornoxicam, (3E)-6-chloro-3-[hydroxy(pyridin-2-ylamino)methylene]-2-methyl-2,3-dihydro-4H-thieno[2,3-e][1,2]thiazin-4-one 1,1-dioxide]	hardly soluble
(3R,4S,5S,6R,7R,9R,11R,12R,13S,14R)-4-[(2,6-Dideoxy-3-C-methyl-3-O-methyl-a-L-ribo-hexopyranosyl)oxy]-14-ethyl-12,13-dihydroxy-7-methoxy-3,5,7,9,11,13-hexamethyl-6-[[3,4,6-trideoxy-3-(dimethylamino)-b-D-xylo-hexopyranosyl]oxy]oxacyclotetradecane-2,10-dione [Clarithromycin]	insoluble
Cc1c(OCC(F)(F)F)ccnc1C[S@@+]([O-])c1nc2ccccc2[nH]1 [Dexlansoprazole, (R)-(+)2-([3-methyl-4-(2,2,2-trifluoroethoxy)pyridin-2-yl]methylsulfinyl)-1H-benzo[d]imidazole]	very slightly soluble

same assay, conditions: with slight warming; cited from earlier work

Compound	solubility in water [µg/mL]
COc1cccc2c1C(=O)c1c(O)c3c(c(O)c1C2=O)C[C@@](O)(C(=O)CO)C[C@@H]3O[C@H]1C[C@H](N)[C@H](O)[C@H](C)O1 [Doxorubicin]	10000 (≈ 18.4 mM)
